Measured values as given in PMC12282105 (RSC Advances, 2025).

Molecular target: SARS-CoV-2 main protease (M^pro or 3CL^pro) (Severe acute respiratory syndrome coronavirus 2, UniProt P0DTD1)
Test: Fluorogenic substrate assay of SARS-CoV-2 main protease
Type: biochemical
Conditions: compound 9 relative to compound 8

## O=c1cc(-c2ccc(O)cc2)oc2cc(O[C@@H]3O[C@H](CO)[C@@H](O)[C@H](O)[C@H]3O)cc(O)c12 [Compound 9, apigenin-7-O-β-D-glucopyranoside]
  improvement in protease inhibitory activity: 15 fold
